Key:
MPS1 = biological target: T1, MPS1 (Homo sapiens, UniProt P33981); type: biochemical; conditions: for Ki: calculated from mean IC50 using the Cheng-Prusoff equation; for MPS1 ligand efficiency (LE): from Ki
T1 sequence (P33981 1-857): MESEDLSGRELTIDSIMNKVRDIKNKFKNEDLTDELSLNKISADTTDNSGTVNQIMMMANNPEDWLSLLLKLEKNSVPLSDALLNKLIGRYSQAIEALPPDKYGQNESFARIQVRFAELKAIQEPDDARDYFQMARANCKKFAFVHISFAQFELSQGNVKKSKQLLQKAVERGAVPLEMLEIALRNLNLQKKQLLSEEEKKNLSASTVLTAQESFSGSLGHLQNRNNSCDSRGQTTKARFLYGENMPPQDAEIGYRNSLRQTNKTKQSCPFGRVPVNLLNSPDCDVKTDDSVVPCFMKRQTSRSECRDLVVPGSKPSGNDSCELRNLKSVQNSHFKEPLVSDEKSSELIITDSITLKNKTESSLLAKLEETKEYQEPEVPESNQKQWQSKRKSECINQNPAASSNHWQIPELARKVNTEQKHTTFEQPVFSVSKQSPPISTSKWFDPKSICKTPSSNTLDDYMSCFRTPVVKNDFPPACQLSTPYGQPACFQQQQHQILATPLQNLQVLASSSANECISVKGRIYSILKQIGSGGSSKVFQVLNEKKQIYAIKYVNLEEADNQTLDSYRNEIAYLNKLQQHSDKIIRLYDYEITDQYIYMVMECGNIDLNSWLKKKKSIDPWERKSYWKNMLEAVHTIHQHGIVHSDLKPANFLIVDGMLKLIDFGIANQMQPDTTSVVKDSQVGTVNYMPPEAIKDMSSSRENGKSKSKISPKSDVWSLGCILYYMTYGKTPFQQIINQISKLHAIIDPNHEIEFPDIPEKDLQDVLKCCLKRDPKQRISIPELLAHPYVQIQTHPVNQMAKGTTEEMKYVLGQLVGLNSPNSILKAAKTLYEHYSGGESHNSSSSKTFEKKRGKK
Method: IC50 values were obtained for an expanded version of the fragment library using the previously described mobility shift assay.[44] Subsequently, Ki values were estimated from IC50 values to allow better comparison of the activity against targets which were measured at different substrate concentrations (Supplementary data Table 1).
IC50 values for MPS1, Aurora A and Aurora B inhibition were determined as previously described,[44] and Ki values were estimated from the mean IC50 values using the Cheng-Prusoff equation.[48]
Kinase [ATP] (M) [Enzyme] (nM) [Peptide Substrate] (M) MgCl2 (mM)
For all compounds, IC50 values for MPS1, Aurora A, and Aurora B were determined
using MPS1 and Aurora A/B mobility shift assays as described previously.1 IC50
values were calculated from a four-parameter logistic fit of percentage inhibition
versus concentration (at 8 compound concentrations) using GraphPad Prism 5
(GraphPad Software, Inc., CA, USA). Mean IC50 values were determined from two
independent measurements each carried out in duplicate. Ki values were estimated
from the mean IC50 values using the Cheng-Prusoff equation.

AKT2 = biological target: T2, AKT2 (Homo sapiens, UniProt P31751); assay: 26-kinase panel mobility shift assay, single concentration; type: biochemical; conditions: read-out: % Inhibition AKT2
T2 construct: purchased Perkin Elmer ProfilerPro assay kit 1
Method: In order to test the biochemical activity of our fragment library, a panel of 26 structurally diverse protein kinases was used.
Screening of 26 kinases using a mobility shift assay
A mobility shift assay to determine kinase inhibition was carried out using a
modified version of the ProfilerPro assay kit 1 (Perkin Elmer, Coventry, UK)
including MPS1 and Aurora B. Each kit contained an enzyme plate, a substrate
plate, reconstitution buffer, 1 M DTT, protease inhibitor cocktail and termination
buffer. Test compounds were added as a solution in DMSO.
peptide phosphorylation assay was carried out as per the manufacturer’s
instructions. The electrophoretic separation and analysis of the phosphorylated
and non-phosphorylated peptides was carried out on a 4-sipper chip using a
LabChip EZReader II (Perkin Elmer). Results were expressed as % inhibition of
peptide phosphorylation relative to control wells for 0 % (no test compound) and
100 % (no ATP) inhibition. The percentage inhibition was calculated using the
% Inhibition = [1 - (% Conversion Sample / % Conversion 0% Inhibition Control)] x 100

[1] = Solubility as noted for the kinase panel screen; type: physicochemical; conditions: reason for screening at 30 µM instead of 100 µM

T2 sequence (P31751 whole entry): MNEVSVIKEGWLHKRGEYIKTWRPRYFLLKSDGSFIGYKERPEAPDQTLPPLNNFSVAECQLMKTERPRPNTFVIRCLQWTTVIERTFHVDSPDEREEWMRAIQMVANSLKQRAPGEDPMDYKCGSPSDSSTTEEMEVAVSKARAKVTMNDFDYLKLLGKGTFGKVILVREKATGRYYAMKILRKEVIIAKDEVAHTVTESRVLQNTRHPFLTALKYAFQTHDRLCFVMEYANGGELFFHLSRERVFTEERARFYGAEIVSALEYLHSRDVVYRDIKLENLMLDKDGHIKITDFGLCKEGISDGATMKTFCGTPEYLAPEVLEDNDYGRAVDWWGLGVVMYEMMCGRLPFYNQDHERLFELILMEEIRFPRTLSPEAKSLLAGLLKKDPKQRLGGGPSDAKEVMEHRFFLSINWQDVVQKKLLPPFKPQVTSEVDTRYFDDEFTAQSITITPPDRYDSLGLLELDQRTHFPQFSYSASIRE

| SMILES | Ki (MPS1) | inhibition at 100 µM (AKT2) | MPS1 ligand efficiency (LE) (MPS1) | melting point | solubility (in words) [1] | fold increase in inhibitory activity against MPS1 relative to compound 3 (MPS1; from Ki values, Table 1 and Table 2) | inhibition at 30 µM (AKT2) |
| --- | --- | --- | --- | --- | --- | --- | --- |
| Nc1ccc[nH]c1=O [Compound 1, 3-aminopyridin-2-one] | > 1000 µM | 77% |  |  |  |  |  |
| Cn1cc(-c2c[nH]c(=O)c(N)c2)cn1 [Compound 2, 3-Amino-5-(1-methyl-1H-pyrazol-4-yl)pyridin-2(1H)-one] | 94.7 µM | 97% | 0.39 | 264 °C |  |  |  |
| COc1ncc(-c2ccncc2)cc1N [Compound 5, 6-Methoxy-3,4′-bipyridin-5-amine] | 91.2 µM | 4% | 0.37 |  |  |  |  |
| Nc1cc(-c2ccnc3ccccc23)c[nH]c1=O [Compound 6] | 30.2 µM | 9% | 0.34 |  |  |  |  |
| CNc1nccc(-c2c[nH]c(=O)c(N)c2)n1 [Compound 7] | 25.6 µM | 93% | 0.39 |  |  |  |  |
| Nc1cc(-c2ccnc(NC3CC3)n2)c[nH]c1=O [Compound 8] | 11 µM | 18% | 0.37 |  |  |  |  |
| Cc1nc(O)c(N)cc1-c1ccncc1 [Compound 15, 3-Amino-6-methyl-5-(pyridin-4-yl)pyridin-2-one] | > 100 µM | 17% |  |  |  |  |  |
| O=C(Nc1cc(-c2ccncc2)c[nH]c1=O)c1ccccc1 [Compound 16, N-(2-Oxo-5-(pyridin-4-yl)-1,2-dihydropyridin-3-yl)benzamide] | 5.4 µM |  | 0.33 |  | poor solubility | 15 fold | 4% |
| CN1CCN(c2ccc(C(=O)Nc3cc(-c4ccncc4)c[nH]c3=O)cc2)CC1 [Compound 22] | 4.8 µM |  | 0.25 |  | poor solubility |  | 13% |
| O=C(Nc1cc(-c2ccnc(NC3CC3)n2)c[nH]c1=O)c1ccccc1 [Compound 24] | 3.2 µM |  | 0.29 |  | poor solubility |  | 91% |
